Measured values taken from ChEMBL document CHEMBL4665659, “Utilizing comprehensive and mini-kinome panels to optimize the selectivity of quinoline inhibitors for cyclin G associated kinase (GAK)” (Bioorg Med Chem Lett, 2019).
One block for each compound: values may come before it.

Key:
[1] = molecular target: T1, Cyclin-G-associated kinase (Homo sapiens, UniProt O14976); assay: Inhibition of GAK (unknown origin) by in-cell pulse based assay
T1 sequence (O14976 whole entry): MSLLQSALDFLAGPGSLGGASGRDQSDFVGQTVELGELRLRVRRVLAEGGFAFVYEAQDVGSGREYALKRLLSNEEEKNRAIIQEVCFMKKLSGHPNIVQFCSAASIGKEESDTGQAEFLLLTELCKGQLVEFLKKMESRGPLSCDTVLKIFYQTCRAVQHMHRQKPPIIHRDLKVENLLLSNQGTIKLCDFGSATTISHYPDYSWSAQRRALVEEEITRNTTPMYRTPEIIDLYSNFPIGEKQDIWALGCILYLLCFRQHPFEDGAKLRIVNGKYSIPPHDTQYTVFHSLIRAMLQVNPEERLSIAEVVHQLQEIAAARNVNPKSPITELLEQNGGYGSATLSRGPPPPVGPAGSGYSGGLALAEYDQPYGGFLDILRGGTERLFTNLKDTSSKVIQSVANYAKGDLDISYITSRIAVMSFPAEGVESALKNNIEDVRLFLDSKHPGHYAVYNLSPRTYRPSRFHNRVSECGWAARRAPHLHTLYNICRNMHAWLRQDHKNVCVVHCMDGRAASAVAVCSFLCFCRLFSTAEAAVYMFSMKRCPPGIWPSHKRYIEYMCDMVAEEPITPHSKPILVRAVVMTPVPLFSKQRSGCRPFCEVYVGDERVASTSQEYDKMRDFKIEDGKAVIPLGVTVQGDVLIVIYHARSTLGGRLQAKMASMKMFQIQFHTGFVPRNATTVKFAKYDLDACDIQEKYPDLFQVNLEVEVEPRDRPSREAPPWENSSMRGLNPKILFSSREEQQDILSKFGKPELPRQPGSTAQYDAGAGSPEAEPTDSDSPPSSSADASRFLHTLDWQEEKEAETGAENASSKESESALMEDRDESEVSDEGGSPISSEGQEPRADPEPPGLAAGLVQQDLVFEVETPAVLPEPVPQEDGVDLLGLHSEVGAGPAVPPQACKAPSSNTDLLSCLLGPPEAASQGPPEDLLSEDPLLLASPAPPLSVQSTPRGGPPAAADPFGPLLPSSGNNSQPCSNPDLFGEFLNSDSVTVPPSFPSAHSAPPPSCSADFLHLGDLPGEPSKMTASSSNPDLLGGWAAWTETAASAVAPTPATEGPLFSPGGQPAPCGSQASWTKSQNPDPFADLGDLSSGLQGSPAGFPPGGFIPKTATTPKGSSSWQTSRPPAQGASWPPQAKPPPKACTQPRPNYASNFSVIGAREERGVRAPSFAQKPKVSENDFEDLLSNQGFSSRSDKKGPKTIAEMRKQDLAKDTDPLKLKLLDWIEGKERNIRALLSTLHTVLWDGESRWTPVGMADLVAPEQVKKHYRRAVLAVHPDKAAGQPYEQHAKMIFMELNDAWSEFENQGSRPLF

[2] = molecular target: T1, Cyclin-G-associated kinase; assay: Binding affinity to human wild type partial length GAK (G13 to Y338 residues) expressed in bacterial expression system by KinomeScan method
[3] = molecular target: RAF proto-oncogene serine/threonine-protein kinase (Homo sapiens) (UniProt P04049); assay: Inhibition of human wild type partial length C-Raf (I330 to T640 residues) expressed in bacterial expression system at 1 uM by Kinomescan method relative to control
[4] = molecular target: Ephrin type-A receptor 8 (Homo sapiens, UniProt P29322); assay: Binding affinity to human wild type partial length EphA8 (Q608 to C920 residues) expressed in bacterial expression system by Kinomescan method
[5] = molecular target: Tyrosine-protein kinase TXK (Homo sapiens, UniProt P42681); assay: Binding affinity to wild-type human partial length TXK (L238 to W527 residues) expressed in bacterial expression system by Kinomescan method
[6] = molecular target: Ephrin type-A receptor 1 (Homo sapiens, UniProt P21709); assay: Binding affinity to human wild type partial length EphA1 (V588 to I913 residues) expressed in bacterial expression system by Kinomescan method
[7] = molecular target: Serine/threonine-protein kinase NLK (Homo sapiens, UniProt Q9UBE8); assay: Binding affinity to wild-type human full length NLK expressed in bacterial expression system by Kinomescan method
[8] = molecular target: Tyrosine-protein kinase Lck (Homo sapiens, UniProt P06239); assay: Binding affinity to wild-type human partial length LCK (R207 to P509 residues) expressed in bacterial expression system by Kinomescan method
[9] = molecular target: T2, Ephrin type-B receptor 6 (Homo sapiens, UniProt O15197); assay: Binding affinity to human wild type partial length EphB6 (Q634 to P948 residues) expressed in mammalian expression system by Kinomescan method
T2 sequence (O15197 whole entry): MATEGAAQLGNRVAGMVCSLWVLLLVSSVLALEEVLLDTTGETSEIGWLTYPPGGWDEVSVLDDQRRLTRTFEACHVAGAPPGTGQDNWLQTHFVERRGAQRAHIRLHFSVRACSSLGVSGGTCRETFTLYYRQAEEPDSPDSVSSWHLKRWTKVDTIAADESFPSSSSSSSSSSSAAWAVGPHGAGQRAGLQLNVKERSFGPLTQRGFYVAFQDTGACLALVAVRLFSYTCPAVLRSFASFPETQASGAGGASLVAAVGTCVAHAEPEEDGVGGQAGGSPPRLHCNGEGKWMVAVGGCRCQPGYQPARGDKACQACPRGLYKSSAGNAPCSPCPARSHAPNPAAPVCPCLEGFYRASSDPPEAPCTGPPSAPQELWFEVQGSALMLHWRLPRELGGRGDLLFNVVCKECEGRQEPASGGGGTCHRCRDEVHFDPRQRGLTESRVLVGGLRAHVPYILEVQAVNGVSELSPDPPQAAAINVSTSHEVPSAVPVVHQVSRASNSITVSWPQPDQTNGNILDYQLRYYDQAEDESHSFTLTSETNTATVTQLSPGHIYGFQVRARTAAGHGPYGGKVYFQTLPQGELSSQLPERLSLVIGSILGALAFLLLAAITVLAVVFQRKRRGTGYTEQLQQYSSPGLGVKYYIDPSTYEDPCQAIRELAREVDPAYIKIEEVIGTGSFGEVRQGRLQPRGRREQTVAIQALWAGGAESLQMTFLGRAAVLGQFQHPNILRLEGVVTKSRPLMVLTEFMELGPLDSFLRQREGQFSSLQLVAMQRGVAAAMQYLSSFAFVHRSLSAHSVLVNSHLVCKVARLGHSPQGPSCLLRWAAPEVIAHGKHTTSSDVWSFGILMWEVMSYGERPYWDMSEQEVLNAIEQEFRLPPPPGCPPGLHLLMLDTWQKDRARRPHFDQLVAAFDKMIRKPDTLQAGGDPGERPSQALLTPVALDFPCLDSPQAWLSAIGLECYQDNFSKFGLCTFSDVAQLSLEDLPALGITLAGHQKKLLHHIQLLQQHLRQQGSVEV

[10] = molecular target: T3, Tyrosine-protein kinase ABL1 (Homo sapiens, UniProt P00519); assay: Binding affinity to human wild type partial length non-phosphorylated ABL1 (S229 to K512 residues) expressed in mammalian expression system by Kinomescan method
[11] = molecular target: Activin receptor type-1 (Homo sapiens, UniProt Q04771); assay: Binding affinity to human wild type partial length ACVR1 (C188 to C509 residues) expressed in bacterial expression system by Kinomescan method
[12] = molecular target: Atypical kinase COQ8A, mitochondrial (Homo sapiens, UniProt Q8NI60); assay: Binding affinity to human wild type full-length ADCK3 expressed in bacterial expression system by Kinomescan method
[13] = molecular target: Interleukin-1 receptor-associated kinase 3 (Homo sapiens, UniProt Q9Y616); assay: Binding affinity to human wild type partial length IRAK3 (V147 to E596 residues) expressed in bacterial expression system by Kinomescan method
[14] = molecular target: Receptor-interacting serine/threonine-protein kinase 2 (Homo sapiens, UniProt O43353); assay: Binding affinity to wild-type human partial length RIPK2 (M1 to K310 residues) expressed in bacterial expression system by Kinomescan method
[15] = molecular target: Dual specificity mitogen-activated protein kinase kinase 5 (Homo sapiens, UniProt Q13163); assay: Binding affinity to human wild type partial length MEK5 (L98 to P448 residues) expressed in mammalian expression system by Kinomescan method
[16] = molecular target: Bone morphogenetic protein receptor type-1B (Homo sapiens, UniProt O00238); assay: Binding affinity to human wild type partial length BMPR1B (D178 to L502 residues) expressed in mammalian expression system by Kinomescan method
[17] = molecular target: T3, Tyrosine-protein kinase ABL1; assay: Binding affinity to human wild type partial length phosphorylated ABL1 (S229 to K512 residues) expressed in mammalian expression system by Kinomescan method

T3 sequence (P00519 whole entry, the tested form may be a part): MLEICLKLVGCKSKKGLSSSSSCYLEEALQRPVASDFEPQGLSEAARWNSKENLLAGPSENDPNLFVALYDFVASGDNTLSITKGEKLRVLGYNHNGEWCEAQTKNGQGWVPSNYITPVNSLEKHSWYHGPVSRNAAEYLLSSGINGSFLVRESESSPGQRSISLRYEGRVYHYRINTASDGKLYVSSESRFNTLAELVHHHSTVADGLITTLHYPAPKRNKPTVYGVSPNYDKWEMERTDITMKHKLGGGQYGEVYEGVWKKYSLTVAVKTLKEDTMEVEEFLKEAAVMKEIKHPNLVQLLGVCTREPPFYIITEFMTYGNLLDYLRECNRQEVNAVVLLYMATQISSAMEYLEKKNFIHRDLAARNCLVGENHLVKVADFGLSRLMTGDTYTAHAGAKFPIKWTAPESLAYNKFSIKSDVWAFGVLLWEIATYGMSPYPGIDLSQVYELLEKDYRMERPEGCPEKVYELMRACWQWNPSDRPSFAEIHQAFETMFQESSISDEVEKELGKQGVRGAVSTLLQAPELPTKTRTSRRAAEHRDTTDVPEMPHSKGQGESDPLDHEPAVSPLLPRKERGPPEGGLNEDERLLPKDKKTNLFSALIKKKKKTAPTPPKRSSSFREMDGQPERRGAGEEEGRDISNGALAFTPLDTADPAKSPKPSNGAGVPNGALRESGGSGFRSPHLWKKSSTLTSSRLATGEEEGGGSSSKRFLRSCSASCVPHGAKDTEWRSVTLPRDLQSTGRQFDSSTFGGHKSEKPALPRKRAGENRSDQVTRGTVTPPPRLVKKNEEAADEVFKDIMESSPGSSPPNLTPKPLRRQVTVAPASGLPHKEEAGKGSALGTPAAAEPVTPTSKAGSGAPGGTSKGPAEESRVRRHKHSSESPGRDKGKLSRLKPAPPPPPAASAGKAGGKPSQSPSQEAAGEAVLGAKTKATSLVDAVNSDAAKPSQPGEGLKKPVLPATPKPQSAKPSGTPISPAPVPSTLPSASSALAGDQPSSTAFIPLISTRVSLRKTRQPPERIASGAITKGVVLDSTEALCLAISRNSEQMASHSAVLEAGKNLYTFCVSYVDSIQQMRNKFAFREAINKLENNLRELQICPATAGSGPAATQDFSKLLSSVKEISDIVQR
Chain of Tyrosine-protein kinase Lck (P06239 whole entry, the tested form may be a part): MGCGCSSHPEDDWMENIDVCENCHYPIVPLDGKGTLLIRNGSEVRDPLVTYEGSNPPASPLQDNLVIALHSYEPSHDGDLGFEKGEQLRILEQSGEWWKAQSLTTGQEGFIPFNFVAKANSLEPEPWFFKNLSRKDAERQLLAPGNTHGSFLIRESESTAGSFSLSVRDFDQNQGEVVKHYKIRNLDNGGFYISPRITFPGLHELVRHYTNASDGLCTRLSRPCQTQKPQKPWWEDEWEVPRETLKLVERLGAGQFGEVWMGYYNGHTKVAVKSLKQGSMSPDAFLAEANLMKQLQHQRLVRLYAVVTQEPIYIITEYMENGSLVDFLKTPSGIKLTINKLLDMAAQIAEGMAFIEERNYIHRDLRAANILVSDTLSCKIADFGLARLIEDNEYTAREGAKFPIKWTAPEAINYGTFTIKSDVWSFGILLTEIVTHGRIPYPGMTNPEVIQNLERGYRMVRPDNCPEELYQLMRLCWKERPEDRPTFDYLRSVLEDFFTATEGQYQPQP
Chain of Activin receptor type-1 (Q04771 whole entry, the tested form may be a part): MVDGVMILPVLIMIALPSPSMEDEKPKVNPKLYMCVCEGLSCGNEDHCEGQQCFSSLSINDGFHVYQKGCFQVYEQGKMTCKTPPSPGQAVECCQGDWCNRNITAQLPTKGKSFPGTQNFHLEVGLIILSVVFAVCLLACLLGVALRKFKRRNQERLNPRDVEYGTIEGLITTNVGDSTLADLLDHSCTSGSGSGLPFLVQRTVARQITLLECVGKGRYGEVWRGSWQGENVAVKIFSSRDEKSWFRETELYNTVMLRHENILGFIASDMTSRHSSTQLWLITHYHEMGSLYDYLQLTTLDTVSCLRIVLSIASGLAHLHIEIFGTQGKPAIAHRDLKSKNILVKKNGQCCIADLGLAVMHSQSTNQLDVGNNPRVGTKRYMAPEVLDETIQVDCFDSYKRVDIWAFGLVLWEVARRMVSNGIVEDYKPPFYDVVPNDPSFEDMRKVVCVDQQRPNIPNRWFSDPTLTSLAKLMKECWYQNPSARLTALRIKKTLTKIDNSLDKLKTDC
Chain of Ephrin type-A receptor 8 (P29322 whole entry, the tested form may be a part): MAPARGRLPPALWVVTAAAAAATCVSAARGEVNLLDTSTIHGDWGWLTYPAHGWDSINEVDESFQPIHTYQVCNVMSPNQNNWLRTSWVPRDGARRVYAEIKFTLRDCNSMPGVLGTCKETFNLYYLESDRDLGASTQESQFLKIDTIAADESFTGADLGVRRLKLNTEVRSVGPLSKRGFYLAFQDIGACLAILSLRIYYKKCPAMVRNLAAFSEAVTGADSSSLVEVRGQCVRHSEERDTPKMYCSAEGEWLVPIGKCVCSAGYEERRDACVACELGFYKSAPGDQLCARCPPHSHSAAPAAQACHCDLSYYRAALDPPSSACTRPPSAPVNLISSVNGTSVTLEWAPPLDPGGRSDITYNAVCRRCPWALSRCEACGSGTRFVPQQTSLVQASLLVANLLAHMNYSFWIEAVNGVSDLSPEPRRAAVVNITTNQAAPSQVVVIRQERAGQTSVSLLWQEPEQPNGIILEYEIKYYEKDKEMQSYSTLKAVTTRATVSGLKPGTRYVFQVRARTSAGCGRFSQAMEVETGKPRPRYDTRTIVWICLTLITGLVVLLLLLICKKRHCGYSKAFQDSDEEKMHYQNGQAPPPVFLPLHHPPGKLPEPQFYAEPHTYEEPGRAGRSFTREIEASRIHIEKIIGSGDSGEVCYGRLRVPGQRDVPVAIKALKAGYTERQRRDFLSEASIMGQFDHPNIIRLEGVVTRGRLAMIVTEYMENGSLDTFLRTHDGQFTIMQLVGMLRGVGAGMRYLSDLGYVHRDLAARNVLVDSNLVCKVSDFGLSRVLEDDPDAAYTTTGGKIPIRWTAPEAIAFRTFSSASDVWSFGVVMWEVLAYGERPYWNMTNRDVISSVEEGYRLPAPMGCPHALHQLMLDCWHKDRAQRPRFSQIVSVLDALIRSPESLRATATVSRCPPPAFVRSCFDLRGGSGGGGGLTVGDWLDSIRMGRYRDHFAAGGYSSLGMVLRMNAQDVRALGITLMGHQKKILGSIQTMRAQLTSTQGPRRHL
Chain of Ephrin type-A receptor 1 (P21709 whole entry, the tested form may be a part): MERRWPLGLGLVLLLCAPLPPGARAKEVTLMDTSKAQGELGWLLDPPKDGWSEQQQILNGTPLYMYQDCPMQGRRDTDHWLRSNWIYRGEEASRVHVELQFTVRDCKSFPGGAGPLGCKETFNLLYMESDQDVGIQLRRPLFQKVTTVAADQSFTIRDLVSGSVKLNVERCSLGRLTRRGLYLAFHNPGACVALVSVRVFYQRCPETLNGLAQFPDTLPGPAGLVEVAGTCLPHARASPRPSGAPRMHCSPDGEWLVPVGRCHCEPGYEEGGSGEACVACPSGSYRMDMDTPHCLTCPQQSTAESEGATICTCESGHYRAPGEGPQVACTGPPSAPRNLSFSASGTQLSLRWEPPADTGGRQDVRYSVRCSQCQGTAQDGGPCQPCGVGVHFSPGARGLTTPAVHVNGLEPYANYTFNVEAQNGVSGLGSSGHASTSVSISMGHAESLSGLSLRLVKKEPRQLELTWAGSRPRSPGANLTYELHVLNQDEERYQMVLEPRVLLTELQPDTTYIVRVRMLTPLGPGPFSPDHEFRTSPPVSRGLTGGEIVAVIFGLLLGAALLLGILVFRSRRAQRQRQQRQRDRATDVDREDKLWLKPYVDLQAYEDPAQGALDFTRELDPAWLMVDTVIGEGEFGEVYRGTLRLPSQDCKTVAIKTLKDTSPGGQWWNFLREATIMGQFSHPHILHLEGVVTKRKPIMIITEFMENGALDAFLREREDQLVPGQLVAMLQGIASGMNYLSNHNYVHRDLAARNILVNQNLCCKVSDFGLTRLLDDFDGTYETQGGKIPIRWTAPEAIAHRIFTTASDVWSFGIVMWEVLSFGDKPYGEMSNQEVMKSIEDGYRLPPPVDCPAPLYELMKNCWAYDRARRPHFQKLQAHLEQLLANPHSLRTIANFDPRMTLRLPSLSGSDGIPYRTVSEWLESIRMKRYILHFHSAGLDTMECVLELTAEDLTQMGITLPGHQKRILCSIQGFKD
Chain of RAF proto-oncogene serine/threonine-protein kinase (Homo sapiens) (P04049 whole entry, the tested form may be a part): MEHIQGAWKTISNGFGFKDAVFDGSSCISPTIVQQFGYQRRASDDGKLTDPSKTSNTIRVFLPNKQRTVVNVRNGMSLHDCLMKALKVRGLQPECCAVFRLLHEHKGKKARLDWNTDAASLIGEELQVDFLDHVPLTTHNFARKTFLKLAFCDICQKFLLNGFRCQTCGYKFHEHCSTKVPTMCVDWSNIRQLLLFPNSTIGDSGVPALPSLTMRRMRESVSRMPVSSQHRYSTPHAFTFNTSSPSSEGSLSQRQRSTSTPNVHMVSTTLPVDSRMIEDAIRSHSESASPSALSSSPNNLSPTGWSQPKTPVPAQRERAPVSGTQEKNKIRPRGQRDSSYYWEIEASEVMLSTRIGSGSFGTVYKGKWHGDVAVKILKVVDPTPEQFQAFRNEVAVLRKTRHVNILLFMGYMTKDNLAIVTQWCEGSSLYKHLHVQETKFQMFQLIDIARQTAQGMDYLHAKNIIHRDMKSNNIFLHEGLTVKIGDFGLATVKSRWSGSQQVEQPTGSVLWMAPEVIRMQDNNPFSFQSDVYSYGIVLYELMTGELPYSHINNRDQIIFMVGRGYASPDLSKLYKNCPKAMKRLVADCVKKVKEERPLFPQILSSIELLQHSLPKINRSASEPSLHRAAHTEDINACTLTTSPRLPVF

Compound: COc1cc(Nc2cc(C)nc3ccc(C(F)(F)F)cc23)cc(OC)c1OC
- IC50 [1]: > 10000 nM
- Kd [2]: > 30000 nM

Compound: COc1cc(Nc2ccnc3ccccc23)cc(OC)c1OC
- Kd [2]: 170 nM

Compound: COc1cc(Nc2ccnc3ccc(C(F)(F)F)cc23)cc(OC)c1OC
- Kd [4]: 1100 nM
- Kd [5]: 1400 nM
- Kd [6]: 3100 nM
- Kd [7]: 690 nM
- Kd [8]: 1100 nM
- Kd [9]: 1600 nM
- Kd [10]: 1900 nM

Compound: COc1cc(Nc2ccnc3ccc(Br)cc23)cc(OC)c1OC
- Kd [11]: 1000 nM
- Kd [12]: 260 nM
- Kd [9]: 710 nM
- Kd [10]: 1200 nM

Compound: COc1cc(Nc2ncnc3ccc(C(F)(F)F)cc23)cc(OC)c1OC
- Kd [2]: 130 nM

Compound: COc1cc(N(C)c2ccnc3ccc(C(F)(F)F)cc23)cc(OC)c1OC
- IC50 [1]: > 10000 nM
- Kd [13]: 480 nM
- Kd [2]: 9900 nM

Now from value to compound:

- Kd [2]: 4.9 nM
Compound: COc1cc(Nc2ccnc3ccc(C#N)cc23)cc(OC)c1OC

- Kd [2]: 48 nM
Compound: COc1ccc2nccc(Nc3cc(OC)c(OC)c(OC)c3)c2c1

- inhibition [3]: 20%
- Kd [2]: 35 nM
Compound: COc1ccc2c(Nc3cc(OC)c(OC)c(OC)c3)ccnc2c1

- Kd [2]: 34 nM
Compound: COc1cc(Nc2ccnc3ccc(C(C)(C)C)cc23)cc(OC)c1OC

- Kd [2]: 6.3 nM
Compound: COc1cc(Nc2ccnc3ccc(Cl)cc23)cc(OC)c1OC

- Kd [4]: 560 nM
- Kd [14]: 190 nM
- Kd [15]: 430 nM
- Kd [11]: 1300 nM
- Kd [2]: 11 nM
- Kd [16]: 280 nM
- Kd [6]: 1300 nM
- Kd [17]: 92 nM
- Kd [8]: 350 nM
- Kd [9]: 130 nM
- Kd [10]: 170 nM
Compound: COc1cc2nccc(Nc3cc(OC)c(OC)c(OC)c3)c2cc1OC

- Kd [2]: 8.6 nM
Compound: COc1cc(Nc2ccnc3ccc(I)cc23)cc(OC)c1OC
